In patent US20210040041A1, “QUINOLINE DERIVATIVES AND PREPARATION METHODS AND USES THEREOF” (DONGGUAN HEC PESTICIDES R&D CO., LTD., priority 2018, published 2021):

Key:
Assay type in all cases: in vivo
[1] = tested on: Armyworm; assay: Test examples 1: leaf dipping method, corn leaves, Armyworm; details: Mythimna separata, foliar, 72 h; 200 mg/L, third instar larvae, after 3 days; read-out: mortality rate to Armyworm
Experimental: (§1) A certain amount of compound (0.0001 g) was weighed by using an analytical balance, and prepared to a mother liquid (1) with N,N-dimethylformamide containing 1% Tween-80 emulsifier, and then the mother liquid was diluted with distilled water for standby.
(§2) Leaf dipping method: the test target was Armyworm. An appropriate amount of corn leaves were infiltrated in the prepared liquid and dried in the shade naturally, and then placed in a culture dish with filter paper; armyworm larvae in the third instar were inoculated to the corn leaves, 10 heads per dish, and the dishes were cultured in an observation room at 24-27° C. The results were investigated after 3 days. […] The test concentration was 200 mg/L.

[2] = tested on: Diamondback moth; assay: Test examples 1: leaf dipping method, cabbage leaves, Diamondback moth; details: Plutella xylostella, foliar, 72 h; 200 mg/L, third instar, after 3 days; read-out: mortality rate to Diamondback moth
Experimental: as §1
as §2, with “targets were Diamondback moth, Tobacco Cutworm and Beet” for “target was”, “cabbage” for “corn”, “worms” for “armyworm larvae”, “the” for “the corn”, “200 mg/L or 100” for “200”

[3] = tested on: Beet Armyworm; assay: Test examples 1: leaf dipping method, cabbage leaves, Beet Armyworm; details: Spodoptera exigua, foliar, 72 h; 100 mg/L, third instar, after 3 days; read-out: mortality rate to Beet Armyworm
Experimental: as §1
as §2, with “targets were Diamondback moth, Tobacco Cutworm and Beet” for “target was”, “cabbage” for “corn”, “worms” for “armyworm larvae”, “the” for “the corn”, “200 mg/L or 100” for “200”

[4] = tested on: Tobacco Cutworm; assay: Test examples 1: leaf dipping method, cabbage leaves, Tobacco Cutworm; details: foliar, 72 h; 100 mg/L, third instar, after 3 days; read-out: mortality rate to Tobacco Cutworm
Experimental: as §1
as §2, with “targets were Diamondback moth, Tobacco Cutworm and Beet” for “target was”, “cabbage” for “corn”, “worms” for “armyworm larvae”, “the” for “the corn”, “200 mg/L or 100” for “200”

[5] = tested on: Brown rice planthopper; assay: Test examples 1: spraying leaves and stems, rice seedlings, Brown rice planthopper; details: 500 mg/L, after 72 hours; read-out: mortality rate to Brown rice planthopper
Experimental: as §1
Spraying Leaves and Stems: the test target was Brown rice planthopper. Rice seedlings inoculated with Brown rice planthopper were spayed under Potter spray tower, and then the Brown rice planthopper was placed and cultured in an observation room at 24-27° C. The results were investigated after 72 hours. The test concentration was 500 mg/L.

[6] = tested on: Aphis medicaginis; assay: Test examples 1: leaves dish spraying, Vicia faba leaves, Aphis medicaginis; details: 500 mg/L, after 48 hours, read-out: mortality rate to Aphis medicaginis
Experimental: as §1
Leaves Dish Spraying: the test targets were tetranychuscinnabarinus and Aphis craccivora Koch. Vicia faba leaves inoculated with Carmine Spider Mite and Aphis medicaginis were spayed under Potter spray tower, and then the Carmine Spider Mite was placed and cultured in anobservation room at 24-27° C.; the Aphis medicaginis was placed and cultured in an observation room at 20-22° C. The results were investigated after 48 hours. […] The test concentration was 500 mg/L.

[7] = tested on: Diamondback moth; assay: Test examples 2: leaf dipping method, Diamondback moth; details: Plutella xylostella, foliar, 72 h, after 3 days, read-out: The mortality rate (%) of the compound to Diamondback moth
Experimental: (§3) A certain amount of compound (0.0001 g) was weighed by using an analytical balance, and prepared to a mother liquid (1%) with N, N-dimethylformamide containing 1% Tween-80 emulsifier, and then the mother liquid was diluted with distilled water for standby.
(§4) Leaf dipping method: an appropriate amount of corn leaves/cabbage/cowpea were infiltrated in the prepared liquid and dried in the shade naturally, and then placed in a culture dish with filter paper; armyworm/Diamondback moth/Beet Armyworm larvae in the 2-3rd instar were inoculated to the corn leaves, 10 heads per dish, and the dishes were cultured in an observation room at 24-27° C. The results were investigated after 3 days. […] The test concentrations were 50 mg/L, 25 mg/L, 12.5 mg/L, 6.25 mg/L, 3.13 mg/L, 1.56 mg/L.

[8] = tested on: Armyworm; assay: Test examples 2: leaf dipping method, Armyworm; details: Mythimna separata, foliar, 72 h, after 3 days, read-out: The mortality rate (%) of the compound to Armyworm
Experimental: as §3, §4

[9] = tested on: Beet Armyworm; assay: Test examples 2: leaf dipping method, Beet Armyworm; details: Spodoptera exigua, foliar, 72 h, after 3 days, read-out: The mortality rate (%) of the compound to Beet Armyworm
Experimental: as §3, §4

[10] = tested on: Frankliniella occidentalis; assay: Test examples 2: spraying of cowpea leaf discs, Frankliniella occidentalis; details: foliar, 24 h, after 1 day, read-out: The mortality rate (%) of the compound to Frankliniella occidentalis
Experimental: as §3
Spraying: cowpea leaves growing uniformity were punched with a punching bear to make leaf discs, leaf discs were placed onto degreased cotton blocks in a dish, two leaf discs per dish, and water was added into the dish and it was flush with the leaf discs, and the dish was for standby. Frankliniella occidentalis in the 2-3rd instar were inoculated to the ready leaf discs, more than 15 per disc. Which were spayed under Potter spray tower at a dose of 0.5 mL per treatment. The blank control was treated first, and then the above operations were repeated in the order of the test dose from low to high, with 2 repeats per treatment. After treatment, the samples were placed in the observation room, and the results were investigated 1 day later. […] The test concentrations were 20 mg/L, 10 mg/L, 5.0 mg/L, 2.5 mg/L, 1.25 mg/L, 0.625 mg/L.

[11] = tested on: Diamondback moth; assay: Test examples 3: leaf dipping method, cabbage, Diamondback moth; details: for mortality at 12.5 µg/mL / mortality at 25 µg/mL / mortality at 50 µg/mL: Plutella xylostella, foliar, 72 h, after 3 days, read-out: The mortality rate (%) to Diamondback moth; for mortality at 12.5 µg/mL: 12.5 mg/L; for mortality at 25 µg/mL: 25 mg/L; for mortality at 50 µg/mL: 50 mg/L
Experimental: (§5) A certain amount of compound (0.0001 g) was weighed by using an analytical balance, and prepared to a mother liquid (1) with N,N-dimethylformamide containing 1% Tween-80 emulsifier, and then the other liquid was diluted with distilled water or standby.
as §4, with “cabbage was” for “corn leaves/cabbage/cowpea were”, “Armyworm/Diamondback moth” for “armyworm/Diamondback moth/Beet Armyworm”, “inoculated,” for “inoculated to the corn leaves,”

[12] = tested on: Armyworm; assay: Test examples 3: leaf dipping method, cabbage, Armyworm
Experimental: as §5
as §4, with “cabbage was” for “corn leaves/cabbage/cowpea were”, “Armyworm/Diamondback moth” for “armyworm/Diamondback moth/Beet Armyworm”, “inoculated,” for “inoculated to the corn leaves,”

CCc1nc2cc(C)c(Oc3ccc(OC(F)(F)F)cc3)cc2c(OC(=O)OCCOC)c1C [Example 1, 2-ethyl-3,7-dimethyl-6-(4-(trifluoromethoxy)phenoxy)quinolin-4-yl (2-methoxyethyl)carbonate]
mortality at 200 µg/mL [1]: 100% | mortality at 200 µg/mL [2]: 100% | mortality at 100 µg/mL [3]: 100% | mortality at 100 µg/mL [4]: 100% | mortality at 500 µg/mL [5]: 100% | mortality at 500 µg/mL [6]: 100% | mortality at 12.5 µg/mL ([7]; 12.5 mg/L): 100% | mortality at 25 µg/mL ([7]; 25 mg/L): 100% | mortality at 50 µg/mL ([7]; 50 mg/L): 100% | mortality at 12.5 µg/mL ([8]; 12.5 mg/L): 100% | mortality at 25 µg/mL ([8]; 25 mg/L): 100% | mortality at 50 µg/mL ([8]; 50 mg/L): 100% | mortality at 12.5 µg/mL ([9]; 12.5 mg/L): 90% | mortality at 25 µg/mL ([9]; 25 mg/L): 100% | mortality at 50 µg/mL ([9]; 50 mg/L): 100% | mortality at 5 µg/mL ([10]; 5 mg/L): 100% | mortality at 10 µg/mL ([10]; 10 mg/L): 100% | mortality at 20 µg/mL ([10]; 20 mg/L): 100%

CCc1nc2cc(C)c(Oc3ccc(OC(F)(F)F)cc3)cc2c(O)c1C [compound NO. 119, reference compound]
mortality at 12.5 µg/mL [11]: 70% | mortality at 25 µg/mL [11]: 90% | mortality at 50 µg/mL [11]: 100% | mortality at 12.5 µg/mL ([12]; Mythimna separata, foliar, 72 h, 12.5 mg/L, after 3 days, read-out: The mortality rate (%) to Armyworm): 10% | mortality at 25 µg/mL ([12]; Mythimna separata, foliar, 72 h, 25 mg/L, after 3 days, read-out: The mortality rate (%) to Armyworm): 50% | mortality at 50 µg/mL ([12]; Mythimna separata, foliar, 72 h, 50 mg/L, after 3 days, read-out: The mortality rate (%) to Armyworm): 60%

CCc1nc2cc(C)c(Oc3ccc(OC(F)(F)F)cc3)c(C)c2c(O)c1C [compound (42), 2-ethyl-3,5,7-trimethyl-6-(4-(trifluoromethoxy)phenoxy)quinolin-4-ol]
mortality at 12.5 µg/mL [11]: 100% | mortality at 25 µg/mL [11]: 100% | mortality at 50 µg/mL [11]: 100% | control effect on Diamondback moth ([11]; in words, different doses): significant control effect | control effect on Armyworm ([12]; in words, different doses): significant control effect
